According to US10370366B2 (Flatley Discovery Lab, LLC, priority 2013, dated 2019):
pEC50: −log10 of the molar value.

Target: T1, human F508del CFTR (Homo sapiens, UniProt P13569, DEL508-508)
T1 construct: expressed in transfected cells; host or cells: Fisher Rat Thyroid (FRT) cells
Assay: CFTR-YFP High Throughput Assay
Type: cell-based
Conditions: FRT cells expressing human F508del CFTR and YFP; for Emax: EMax normalized to the positive control, read-out: % Efficacy
Experimental: Assays for Detecting and Measuring the Effect of Compounds on F508del-CFTR Channels CFTR-YFP High Throughput Assay-CFTR Corrector Protocol:
This protocol is designed to selectively screen small molecule compounds for F508del CFTR corrector activities in the HTS YFP (yellow fluorescent protein) flux assay. In this protocol, the cells are incubated with testing compounds for 24 hours, washed with PBS, stimulated with forskolin and a standard potentiator, and fluorescence in each plate well is measured kinetically read on a 384-well HTS plate reader, such as the Hamamatsu FDSS-6000.
YFP fluorescence intensity values are acquired at high speed before and after iodide buffer is injected to the assay cells. Iodide enters the cells via active CFTR channels in the plasma membrane, and quenches the YFP fluorescence. The rate of fluorescence quenching is proportionate to the total CFTR activity in the cell membrane. F508del CFTR correctors increase the number of CFTR molecules in the testing cell plasma membrane, and thereby accelerate YFP quenching.
This method was initially developed for bench top plate readers (Galietta et al., 2001), and was adapted to the HTS format (Sui et al. Assay Drug Dev. Technol. 2010).
Fisher Rat Thyroid (FRT) cells stably expressing both human F508del CFTR and a halide-sensitive yellow fluorescent protein (YFP-H148Q/I152L 25,22) (Galietta et al. Am. J. Physiol Cell Physiol 281(5), C1734, 2001) were cultured on plastic surface in Coon's modified Ham's F12 medium supplemented with FBS 10%, L-glutamine 2 mM, penicillin 100 U/ml, and streptomycin 100 µg/ml. G418 (0.75-1.0 mg/ml) and zeocin (3.2 ug/ml) were used for selection of FRT cells expressing F508del CFTR and YFP. For primary screening, FRT cells were plated into 384-well black wall, transparent bottom microtiter plates (Costar; Corning Inc.) at a cell density of 20,000-40,000 per well. Test compound was applied to the cells at varying concentrations ranging from 2 nM-40 μM in either a 2-fold or 3-fold dilution series. Cells were incubated in a cell culture incubator at 37° C. with 5% CO2 for 24-26 h. Assay plates were washed with DPBS media (Thermo, cat# SH30028.02) to remove unbound cells and compound. Stimulation media (25 μL) containing 20 μM Forskolin & 30 μM P3 [6-(Ethyl-phenyl-sulfonyl)-4-oxo-1,4-dihydro-quinoline-3-carboxylic acid 2-methoxy-benzylamide] in Hams F-12 coon's modified media was added to the plate wells and incubated at room temperature for 60-120 min. […] (10 mM HEPES, 1 mM MgCl2, 3 mM KCl, 1 mM CaCl2, 150 mM NaI) was then added and fluorescence quench curves (Excitation 500 nm/Emission 540 nm; exposure 136 ms) were immediately recorded on an FDSS-6000 plate reader (Hamamatsu). Quench rates were derived from least squares fitting of the data as described by Sui et al (2010).
CFTR-YFP High Throughput Assay-CFTR Potentiator Protocol:
This protocol is designed to selectively screen small molecule compounds for F508del CFTR potentiator activities in the HTS YFP flux assay. Such compounds act acutely to stimulate CFTR already expressed on the membrane surface. In this protocol, the cells are incubated at 27° C. for 24 hours to homogeneously boost F508del CFTR expression in the cell membrane (low temperature correction), washed with PBS, treated with test compound, and CFTR activity is stimulated with forskolin for 1-2 hr. Measurement of ion flux is initiated by addition of iodide-containing buffer, and YFP quenching is kinetically recorded using a 384-well HTS plate reader, such as the Hamamatsu FDSS-6000.
YFP fluorescence intensity values are acquired at high speed over a 1 min time course before and after iodide buffer is injected to the assay cells. Iodide enters the cells via active CFTR channels in the plasma membrane, and quenches the YFP fluorescence. The rate of fluorescence quenching is proportionate to total CFTR activity in the cell membrane. […]

T1 sequence (P13569 with tags, fused parts or gaps DEL508-508): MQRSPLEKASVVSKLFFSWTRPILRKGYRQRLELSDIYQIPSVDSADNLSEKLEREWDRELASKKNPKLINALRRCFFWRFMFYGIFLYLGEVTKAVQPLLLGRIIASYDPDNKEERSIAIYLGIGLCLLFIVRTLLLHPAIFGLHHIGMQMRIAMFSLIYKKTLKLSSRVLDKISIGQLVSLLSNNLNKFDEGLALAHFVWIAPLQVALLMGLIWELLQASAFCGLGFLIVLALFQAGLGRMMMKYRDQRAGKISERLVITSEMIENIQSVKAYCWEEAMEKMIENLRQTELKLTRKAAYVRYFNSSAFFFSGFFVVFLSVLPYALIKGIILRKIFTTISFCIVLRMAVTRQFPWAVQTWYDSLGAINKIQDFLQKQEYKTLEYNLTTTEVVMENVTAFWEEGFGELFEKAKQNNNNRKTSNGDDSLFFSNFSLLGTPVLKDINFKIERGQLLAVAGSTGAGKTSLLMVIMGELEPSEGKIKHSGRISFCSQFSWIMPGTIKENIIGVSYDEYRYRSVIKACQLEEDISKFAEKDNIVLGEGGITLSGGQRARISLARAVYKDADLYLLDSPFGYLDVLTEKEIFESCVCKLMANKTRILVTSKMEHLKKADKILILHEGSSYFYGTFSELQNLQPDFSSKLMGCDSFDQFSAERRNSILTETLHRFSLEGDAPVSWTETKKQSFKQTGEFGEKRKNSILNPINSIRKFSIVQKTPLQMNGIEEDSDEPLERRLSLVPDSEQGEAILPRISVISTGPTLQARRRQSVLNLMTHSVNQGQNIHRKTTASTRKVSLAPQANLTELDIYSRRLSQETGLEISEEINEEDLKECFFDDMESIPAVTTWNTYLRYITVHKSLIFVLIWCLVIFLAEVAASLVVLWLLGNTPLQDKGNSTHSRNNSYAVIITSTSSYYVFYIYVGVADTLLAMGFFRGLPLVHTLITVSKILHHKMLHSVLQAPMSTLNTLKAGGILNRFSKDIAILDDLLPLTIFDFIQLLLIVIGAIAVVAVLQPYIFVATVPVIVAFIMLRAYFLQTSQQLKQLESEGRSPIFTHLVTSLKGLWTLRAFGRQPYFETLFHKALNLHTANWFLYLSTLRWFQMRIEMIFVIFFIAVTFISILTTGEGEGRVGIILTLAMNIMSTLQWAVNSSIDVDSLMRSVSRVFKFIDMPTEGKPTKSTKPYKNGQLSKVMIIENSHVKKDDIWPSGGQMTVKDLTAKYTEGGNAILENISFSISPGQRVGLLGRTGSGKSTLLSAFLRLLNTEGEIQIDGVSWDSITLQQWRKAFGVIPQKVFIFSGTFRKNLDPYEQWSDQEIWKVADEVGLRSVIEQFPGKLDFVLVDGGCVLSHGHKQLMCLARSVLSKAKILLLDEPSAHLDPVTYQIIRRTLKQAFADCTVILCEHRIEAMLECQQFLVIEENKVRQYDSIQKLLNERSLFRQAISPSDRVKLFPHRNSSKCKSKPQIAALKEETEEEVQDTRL

Row | Compound | Emax [%] | pEC50
1 | CCN(C(=O)Cn1nc(Cc2cccnc2)c2c(C)cccc2c1=O)c1ccc2c(c1)OC(F)(F)O2 [Example 48, N-(2,2-difluorobenzo[d][1,3]dioxol-5-yl)-N-ethyl-2-(5-methyl-1-oxo-4-(pyridin-3-ylmethyl)phthalazin-2(1H)-yl)acetamide] | 30 to 80 | –
2 | CCN(C(=O)c1nn(-c2ccncc2)c(=O)c2c1c1ccccc1n2C)c1ccccc1 [Example 169, N-ethyl-5-methyl-4-oxo-N-phenyl-3-(pyridin-4-yl)-4,5-dihydro-3H-pyridazino[4,5-b]indole-1-carboxamide] | 30 to 80 | –
3 | CCN(C(=O)Cn1nc(-c2ccc(C(=O)O)cc2)c2ccccc2c1=O)c1ccc2c(c1)OC(F)(F)O2 [Example 20, 4-(3-(2-((2,2-difluorobenzo[d][1,3]dioxol-5-yl)(ethyl)amino)-2-oxoethyl)-4-oxo-3,4-dihydrophthalazin-1-yl)benzoic acid] | 30 to 80 | < 4.70
4 | COc1ccc2c(c1)c1c(=O)n(CC(=O)N(C)c3ccc4nc(C)oc4c3)ncc1n2Cc1ccc(F)cc1 [Example 260, 2-(5-(4-fluorobenzyl)-8-methoxy-1-oxo-1,5-dihydro-2H-pyridazino[4,5-b]indol-2-yl)-N-methyl-N-(2-methylbenzo[d]oxazol-6-yl)acetamide] | > 80 | > 5.00
5 | CCN(C(=O)Cn1nc(Cc2cccnc2)c2cccc(C)c2c1=O)c1ccc2c(c1)OC(F)(F)O2 [Example 47, N-(2,2-difluorobenzo[d][1,3]dioxol-5-yl)-N-ethyl-2-(8-methyl-1-oxo-4-(pyridin-3-ylmethyl)phthalazin-2(1H)-yl)acetamide] | 30 to 80 | –
6 | CCc1ccc(N(CC)C(=O)Cn2nc(Cc3cccnc3)c3cc(C)ccc3c2=O)cc1 [Example 29, N-ethyl-N-(4-ethylphenyl)-2-(6-methyl-1-oxo-4-(pyridin-3-ylmethyl)phthalazin-2(1H)-yl)acetamide] | 30 to 80 | –
7 | CCc1ccc(N(CC)C(=O)Cn2nc(Cc3cccnc3)c3ccc(C)cc3c2=O)cc1 [Example 28, N-ethyl-N-(4-ethylphenyl)-2-(7-methyl-1-oxo-4-(pyridin-3-ylmethyl)phthalazin-2(1H)-yl)acetamide] | 30 to 80 | –
8 | CCN(C(=O)Cn1nc(-c2ccc(S(N)(=O)=O)cc2)c2ccc(OC)cc2c1=O)c1ccc2nc(C)oc2c1 [Example 80, N-ethyl-2-(7-methoxy-1-oxo-4-(4-sulfamoylphenyl)phthalazin-2(1H)-yl)-N-(2-methylbenzo[d]oxazol-6-yl)acetamide] | 30 to 80 | 4.70 to 5.00
9 | CC(C)n1nc(-c2ccccc2)c2c3ccccc3n(C)c2c1=O [Example 239, 3-isopropyl-5-methyl-1-phenyl-3,5-dihydro-4H-pyridazino[4,5-b]indol-4-one] | 30 to 80 | < 4.70
10 | CCN(C(=O)Cn1nc(C(=O)Nc2cc(Cl)ccc2C(=O)O)c2ccccc2c1=O)c1ccc2c(c1)OC(F)(F)O2 [Example 125] | 30 to 80 | –
11 | CCN(C(=O)Cn1ncc2c(c1=O)c1ccccc1n2CCOC)c1ccc2c(c1)OC(F)(F)O2 [Example 132, N-(2,2-difluorobenzo[d][1,3]dioxol-5-yl)-N-ethyl-2-(5-(2-methoxyethyl)-1-oxo-1H-pyridazino[4,5-b]indol-2(5H)-yl)acetamide] | 30 to 80 | –
12 | CCN(C(=O)c1nn(-c2ccccc2)c(=O)c2c1c1ccccc1n2C)c1ncnc2c1cnn2C [Example 164, N-ethyl-5-methyl-N-(1-methyl-1H-pyrazolo[3,4-d]pyrimidin-4-yl)-4-oxo-3-phenyl-4,5-dihydro-3H-pyridazino[4,5-b]indole-1-carboxamide] | 30 to 80 | –
13 | Cc1ccc(-n2nc(C(=O)N(c3ccccc3)C(C)C)c3c4ccccc4n(C)c3c2=O)cc1 [Example 152, N-isopropyl-5-methyl-4-oxo-N-phenyl-3-(p-tolyl)-4,5-dihydro-3H-pyridazino[4,5-b]indole-1-carboxamide] | 30 to 80 | –
14 | CCN(C(=O)Cn1nc(C(=O)N(CC)c2ccccc2C#N)c2ccccc2c1=O)c1ccc2c(c1)OC(F)(F)O2 [Example 129, N-(2-cyanophenyl)-3-(2-((2,2-difluorobenzo[d][1,3]dioxol-5-yl)(ethyl)amino)-2-oxoethyl)-N-ethyl-4-oxo-3,4-dihydrophthalazine-1-carboxamide] | 30 to 80 | 4.70 to 5.00
15 | COc1cc2c(=O)n(CC(=O)N(C)c3ccc4c(c3)OC(F)(F)O4)nc(-c3cccc(C#N)c3)c2cc1Cl [Example 96, 2-(6-chloro-4-(3-cyanophenyl)-7-methoxy-1-oxophthalazin-2(1H)-yl)-N-(2,2-difluorobenzo[d][1,3]dioxol-5-yl)-N-methylacetamide] | > 80 | > 5.00
16 | CCN(C(=O)c1nn(C)c(=O)c2c1c1ccccc1n2C)c1cccc(Cl)c1 [Example 209, N-(3-chlorophenyl)-N-ethyl-3,5-dimethyl-4-oxo-4,5-dihydro-3H-pyridazino[4,5-b]indole-1-carboxamide] | 30 to 80 | > 5.00
17 | Cn1c2ccccc2c2c(-c3ccccc3)nn(-c3ccccc3F)c(=O)c21 [Example 237, 3-(2-fluorophenyl)-5-methyl-1-phenyl-3H-pyridazino[4,5-b]indol-4(5H)-one] | 10 to 30 | < 4.70
18 | Cc1nc2ccc(N(C)C(=O)Cn3nc(-c4cccc(Cl)c4)c4ccc(OCc5ccccc5)cc4c3=O)cc2o1 [Example 116, 2-(7-(benzyloxy)-4-(3-chlorophenyl)-1-oxophthalazin-2(1H)-yl)-N-methyl-N-(2-methylbenzo[d]oxazol-6-yl)acetamide] | > 80 | > 5.00
19 | CCc1ccc(N(CC)C(=O)Cn2nc(-c3cccc(C#N)c3)c3ccccc3c2=O)cc1 [Example 17, 2-(4-(3-cyanophenyl)-1-oxophthalazin-2(1H)-yl)-N-ethyl-N-(4-ethylphenyl)acetamide] | 30 to 80 | > 5.00
20 | CCc1ccc(N(CC)C(=O)Cn2nc(Cc3cccnc3)c3c(C)cccc3c2=O)cc1 [Example 31, N-ethyl-N-(4-ethylphenyl)-2-(5-methyl-1-oxo-4-(pyridin-3-ylmethyl)phthalazin-2(1H)-yl)acetamide] | 30 to 80 | –
21 | CCN(C(=O)c1nn(-c2ccccc2)c(=O)c2c1c1ccccc1n2C)c1cccc(Cl)c1 [Example 181, N-(3-chlorophenyl)-N-ethyl-5-methyl-4-oxo-3-phenyl-4,5-dihydro-3H-pyridazino[4,5-b]indole-1-carboxamide] | 30 to 80 | –
22 | CCN(C(=O)c1nn(C2CCCCC2)c(=O)c2c1c1ccccc1n2C)c1cccc(Cl)c1 [Example 204, N-(3-chlorophenyl)-3-cyclohexyl-N-ethyl-5-methyl-4-oxo-4,5-dihydro-3H-pyridazino[4,5-b]indole-1-carboxamide] | 30 to 80 | –
23 | CCN(C(=O)Cn1ncc2c(c1=O)c1ccccc1n2Cc1ccncc1)c1ccc2c(c1)OC(F)(F)O2 [Example 143, N-(2,2-difluorobenzo[d][1,3]dioxol-5-yl)-N-ethyl-2-(1-oxo-5-(pyridin-4-ylmethyl)-1H-pyridazino[4,5-b]indol-2(5H)-yl)acetamide] | 30 to 80 | –
24 | COc1ccc2c(-c3cccc(F)c3)nn(CC(=O)C3(c4ccc5c(c4)OC(F)(F)O5)CC3)c(=O)c2c1 [Example 250, 2-(2-(1-(2,2-difluorobenzo[d][1,3]dioxol-5-yl)cyclopropyl)-2-oxoethyl)-4-(3-fluorophenyl)-7-methoxyphthalazin-1(2H)-one] | 30 to 80 | > 5.00
